Data set [1] deals with Staphylococcus aureus. Kind of data set: Antibacterial activity against community-associated methicillin-resistant Staphylococcus aureus USA300 SF8300 assessed as inhibition of bacterial growth by measuring zone of inhibition at 30 ug incubated for 18 to 20 hrs by CLSI based disk diffusion analysis. The class given is functional. As to conditions: time 18-20 hrs, read-out: DIZ.

In data set [2] the test system is Staphylococcus aureus. Description: Antibacterial activity against methicillin-susceptible Staphylococcus aureus ATCC 25923 assessed as inhibition of bacterial growth by measuring zone of inhibition at 30 ug incubated for 18 to 20 hrs by CLSI based disk diffusion analysis. As to conditions: time 18-20 hrs, read-out: DIZ. It counts as functional. (In general: A growth-free zone around the sample is the usual read-out of agar diffusion tests.)

Data set [3] concerns Pseudomonas aeruginosa. Kind of data set: Antibacterial activity against Pseudomonas aeruginosa assessed as inhibition of bacterial growth by measuring zone of inhibition at 30 ug incubated for 18 to 20 hrs by CLSI based disk diffusion analysis. The class given is functional. Particulars: time 18-20 hrs, read-out: DIZ.
Data set [4] relates to Staphylococcus aureus. Kind of data set: Antibacterial activity against community-associated methicillin-resistant Staphylococcus aureus USA300 SF8300 assessed as inhibition of bacterial growth incubated for 18 to 20 hrs by CLSI based microdilution susceptibility analysis. The class given is functional. As to conditions: time 18-20 hrs.
The subject of data set [5] is Staphylococcus aureus. Kind of data set: Antibacterial activity against methicillin-susceptible Staphylococcus aureus ATCC 29213 assessed as inhibition of bacterial growth incubated for 18 to 20 hrs by CLSI based microdilution susceptibility analysis. Particulars: time 18-20 hrs. The class given is functional. A general note: Dilution methods test growth across graded concentrations, often in twofold steps.

For data set [6], the system named is Pseudomonas aeruginosa. Kind of data set: Antibacterial activity against Pseudomonas aeruginosa assessed as inhibition of bacterial growth incubated for 18 to 20 hrs by CLSI based microdilution susceptibility analysis. As to conditions: time 18-20 hrs. The class given is functional.
Data set [7] relates to Staphylococcus aureus. Description: Bactericidal activity against community-associated methicillin-resistant Staphylococcus aureus USA300 SF8300 assessed as inhibition of bacterial growth incubated for 18 to 20 hrs by CLSI based microdilution susceptibility analysis. The class given is functional. As to conditions: time 18-20 hrs.
The test system of data set [8] is Staphylococcus aureus. Kind of data set: Bactericidal activity against methicillin-susceptible Staphylococcus aureus ATCC 29213 assessed as inhibition of bacterial growth incubated for 18 to 20 hrs by CLSI based microdilution susceptibility analysis. The class given is functional. Particulars: time 18-20 hrs.
In data set [9] the test system is Pseudomonas aeruginosa. Kind of data set: Bactericidal activity against Pseudomonas aeruginosa assessed as inhibition of bacterial growth incubated for 18 to 20 hrs by CLSI based microdilution susceptibility analysis. It counts as functional. As to conditions: time 18-20 hrs.
For data set [10], the system named is Staphylococcus aureus. Kind of data set: Inhibition of methicillin-susceptible Staphylococcus aureus ATCC 29213 bacterial cell adhesion to fibronectin at 0.1 mg/ml followed by compound addition on fibronectin precoated plate measured after 2 hrs by crystal violet dye based analysis. The class given is functional.
Data set [11] addresses Albumin (Homo sapiens, UniProt P02768). Kind of data set: Binding affinity to cysteine residue of human serum albumin assessed as conjugation of compound with protein at 1:1 compound to human serum albumin concentration incubated for 2 hr by LC-MS/MS analysis. It counts as cell-free.
The target of data set [12] is T1, Sortase A (Staphylococcus aureus, UniProt Q9S446).
T1 sequence (Q9S446 whole entry): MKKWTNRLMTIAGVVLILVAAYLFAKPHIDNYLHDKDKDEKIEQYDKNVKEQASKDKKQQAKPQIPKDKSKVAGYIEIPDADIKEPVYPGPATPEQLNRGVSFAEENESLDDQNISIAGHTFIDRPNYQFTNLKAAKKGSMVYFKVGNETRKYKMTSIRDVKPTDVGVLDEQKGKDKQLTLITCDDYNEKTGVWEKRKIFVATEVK
Kind of data set: Inhibition of Staphylococcus aureus sortase A using Abz/Dnp fluorescent peptide as a substrate measured after 30 mins by fluorescent based analysis.

≈ marks a conversion by molar mass, not a printed value. Calls of active or inactive are those of the source. A value given as a limit tells only on which side of the number the result lay.

The values below come from ChEMBL document CHEMBL5143612, “Antibacterial activity evaluation of vinyl sulfones against global predominant methicillin-resistant Staphylococcus aureus USA300” (Bioorg Med Chem Lett, 2022).

In general, MIC refers to the smallest concentration in the dilution series that meets the test's criterion for growth inhibition. Broadly, the MBC is the lowest tested concentration that kills the bacteria rather than only halting them. As usually defined, the IC50 is the midpoint of a concentration-inhibition curve. A low value points to greater potency.

Sequence of Albumin (P02768 whole entry): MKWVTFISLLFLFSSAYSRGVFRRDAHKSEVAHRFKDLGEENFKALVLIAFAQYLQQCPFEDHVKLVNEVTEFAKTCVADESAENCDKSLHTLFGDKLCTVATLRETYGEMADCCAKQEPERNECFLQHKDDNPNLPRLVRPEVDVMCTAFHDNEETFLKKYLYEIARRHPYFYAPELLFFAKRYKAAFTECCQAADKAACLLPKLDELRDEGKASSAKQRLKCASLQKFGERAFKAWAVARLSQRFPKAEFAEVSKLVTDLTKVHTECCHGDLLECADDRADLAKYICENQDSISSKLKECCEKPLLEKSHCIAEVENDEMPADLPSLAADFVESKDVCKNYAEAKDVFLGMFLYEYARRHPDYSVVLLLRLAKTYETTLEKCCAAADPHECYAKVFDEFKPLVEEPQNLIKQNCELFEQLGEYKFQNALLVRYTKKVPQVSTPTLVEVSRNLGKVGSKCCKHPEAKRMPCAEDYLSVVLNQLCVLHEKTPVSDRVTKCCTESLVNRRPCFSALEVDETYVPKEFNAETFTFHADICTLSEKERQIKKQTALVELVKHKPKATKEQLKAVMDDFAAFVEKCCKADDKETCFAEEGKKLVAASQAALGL

In the case of `N#C/C=C/S(=O)(=O)c1ccccc1`, the zone of inhibition at 30 µg/disc in data set [1] was 25.2 mm; in data set [2] it was 22.6 mm; in data set [3], 14.1 mm. Also, the MIC in data set [4] worked out at 7.5 µg/mL (≈ 38.8 µM); in [5] it was 1.88 µg/mL (≈ 9.7 µM); in [6], 60 µg/mL (≈ 311 µM). In addition, the figures for the MBC in data set [7], in [8] and in [9] were 60 µg/mL (≈ 311 µM), 30 µg/mL (≈ 155 µM) and 60 µg/mL (≈ 311 µM), respectively. Moreover, the inhibition entry in data set [10] was “Active”.

Regarding `Cc1ccc(S(=O)(=O)/C=C/C#N)cc1`, the values for the zone of inhibition at 30 µg/disc in data set [1], in data set [2] and in [3] were 27.7 mm, 28 mm and 12.9 mm, respectively. Further, the MIC came to 7.5 µg/mL (≈ 36.2 µM) in [4], 1.88 µg/mL (≈ 9.05 µM) in data set [5] and 120 µg/mL (≈ 579 µM) in [6]. In addition, the MBC was 60 µg/mL (≈ 289 µM) in data set [7], 15 µg/mL (≈ 72.4 µM) in data set [8] and above 120 µg/mL in [9]. In addition, the result in data set [11] was Active. For the same molecule, half-maximal inhibition in data set [12] (IC50) was put at 129 µM. For the same molecule, in [10], the inhibition result was “Active”.

`N#C/C=C/S(=O)(=O)c1ccc(Cl)cc1`: the zone of inhibition at 30 µg/disc worked out at 25.5 mm in data set [1], 22.8 mm in data set [2] and 13.9 mm in data set [3]. Also, the MIC was 7.5 µg/mL (≈ 32.9 µM) in data set [4], 1.88 µg/mL (≈ 8.24 µM) in [5] and 60 µg/mL (≈ 264 µM) in [6]. Also, the MBC in data set [7] was found to be 60 µg/mL (≈ 264 µM); in data set [8], 15 µg/mL (≈ 65.9 µM); in [9], 120 µg/mL (≈ 527 µM). The inhibition result in data set [10] is “Active”.

Regarding `N#C/C=C/S(=O)(=O)c1ccc(Br)cc1`, the zone of inhibition at 30 µg/disc was 25.7 mm in data set [1], 24.7 mm in data set [2] and 12.9 mm in data set [3]. The MIC in [4] was determined as 15 µg/mL (≈ 55.1 µM); in data set [5] it was 7.5 µg/mL (≈ 27.6 µM); in data set [6], 120 µg/mL (≈ 441 µM). Also, the MBC was 60 µg/mL (≈ 220 µM) in [7], 15 µg/mL (≈ 55.1 µM) in [8] and above 120 µg/mL in [9]. Besides, the inhibition entry in data set [10] was “Active”.
